These results are taken from ChEMBL document CHEMBL1145498, “A systematic interaction map of validated kinase inhibitors with Ser/Thr kinases” (Proc Natl Acad Sci U S A, 2007).

Assay [1] deals with Cyclin-dependent kinase 16 (Homo sapiens) (UniProt Q00536).
Assay [2] has as its target STE20-like serine/threonine-protein kinase (Homo sapiens) (UniProt Q9H2G2).
Assay [3] concerns the target Calcium/calmodulin-dependent protein kinase type II subunit alpha (Homo sapiens) (UniProt Q9UQM7).
Assay [4] addresses Serine/threonine-protein kinase pim-3 (Homo sapiens) (UniProt Q86V86).
Assay [5] concerns the target Serine/threonine-protein kinase VRK2 (Homo sapiens) (UniProt Q86Y07).
The target of assay [6] is Mitogen-activated protein kinase 11 (Homo sapiens, UniProt Q15759).
Chain of Mitogen-activated protein kinase 11 (Q15759 whole entry): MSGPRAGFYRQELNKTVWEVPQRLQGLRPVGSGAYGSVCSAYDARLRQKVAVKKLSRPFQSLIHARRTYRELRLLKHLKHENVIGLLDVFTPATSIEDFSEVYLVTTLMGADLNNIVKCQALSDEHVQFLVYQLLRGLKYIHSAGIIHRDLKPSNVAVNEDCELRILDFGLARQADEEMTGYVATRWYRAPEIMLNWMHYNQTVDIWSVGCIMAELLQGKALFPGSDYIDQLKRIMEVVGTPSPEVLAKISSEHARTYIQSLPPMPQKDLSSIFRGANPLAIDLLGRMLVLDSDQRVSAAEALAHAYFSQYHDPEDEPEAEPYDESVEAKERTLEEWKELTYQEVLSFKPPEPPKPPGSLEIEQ
In assay [7] the target is Cyclin-dependent kinase-like 1 (Homo sapiens) (UniProt Q00532).
Assay [8] concerns the target Tyrosine-protein kinase JAK1 (Homo sapiens) (UniProt P23458).
Assay [9] deals with Casein kinase I isoform gamma-1 (Homo sapiens) (UniProt Q9HCP0).
In assay [10] the target is Death-associated protein kinase 3 (Homo sapiens) (UniProt O43293).
Chain of Death-associated protein kinase 3 (Homo sapiens) (O43293 whole entry, looked up): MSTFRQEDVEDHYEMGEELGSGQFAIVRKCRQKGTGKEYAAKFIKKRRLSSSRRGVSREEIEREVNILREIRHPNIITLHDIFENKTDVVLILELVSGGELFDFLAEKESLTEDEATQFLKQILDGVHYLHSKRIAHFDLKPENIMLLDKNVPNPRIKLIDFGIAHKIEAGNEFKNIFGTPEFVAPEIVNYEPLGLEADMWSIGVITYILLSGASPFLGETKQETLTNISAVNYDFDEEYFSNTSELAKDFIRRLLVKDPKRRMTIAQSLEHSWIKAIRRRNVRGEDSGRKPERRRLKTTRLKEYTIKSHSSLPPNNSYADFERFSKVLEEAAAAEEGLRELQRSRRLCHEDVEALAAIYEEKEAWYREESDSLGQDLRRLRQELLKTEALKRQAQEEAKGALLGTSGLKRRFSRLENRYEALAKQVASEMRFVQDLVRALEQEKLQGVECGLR
Assay [11] has as its target Serine/threonine-protein kinase PLK1 (Homo sapiens) (UniProt P53350).
Assay [12] addresses Mitogen-activated protein kinase 3 (Homo sapiens, UniProt P27361).
The target of assay [13] is Serine/threonine-protein kinase pim-1 (Homo sapiens) (UniProt P11309).
Chain of Serine/threonine-protein kinase pim-1 (Homo sapiens) (P11309 whole entry, looked up): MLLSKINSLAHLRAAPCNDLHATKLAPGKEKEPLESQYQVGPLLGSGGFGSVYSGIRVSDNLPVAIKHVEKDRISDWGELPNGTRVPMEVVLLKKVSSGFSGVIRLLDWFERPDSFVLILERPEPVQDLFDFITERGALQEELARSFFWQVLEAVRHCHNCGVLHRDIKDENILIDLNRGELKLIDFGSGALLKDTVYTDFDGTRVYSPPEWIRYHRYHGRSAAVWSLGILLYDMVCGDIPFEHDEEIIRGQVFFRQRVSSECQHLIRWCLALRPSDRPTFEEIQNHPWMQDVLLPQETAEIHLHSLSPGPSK
For assay [14], the target named is T1, Calcium/calmodulin-dependent protein kinase type IV (Homo sapiens) (UniProt Q16566).
T1 sequence (whole entry): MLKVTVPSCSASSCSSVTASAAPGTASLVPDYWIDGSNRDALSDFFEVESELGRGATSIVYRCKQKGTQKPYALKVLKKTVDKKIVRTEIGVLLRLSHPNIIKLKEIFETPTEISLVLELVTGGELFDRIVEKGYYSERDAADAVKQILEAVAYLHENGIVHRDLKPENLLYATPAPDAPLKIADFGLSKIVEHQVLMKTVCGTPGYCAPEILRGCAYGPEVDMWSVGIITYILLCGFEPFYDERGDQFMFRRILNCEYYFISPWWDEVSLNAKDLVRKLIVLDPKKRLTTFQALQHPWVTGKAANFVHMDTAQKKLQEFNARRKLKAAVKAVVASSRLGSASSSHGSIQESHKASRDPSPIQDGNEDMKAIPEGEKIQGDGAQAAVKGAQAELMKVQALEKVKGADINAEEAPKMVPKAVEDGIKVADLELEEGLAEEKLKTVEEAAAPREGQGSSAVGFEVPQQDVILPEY

In assay [15] the target is Calcium/calmodulin-dependent protein kinase type II subunit gamma (Homo sapiens) (UniProt Q13555).
Assay [16] addresses Dual specificity protein kinase CLK3 (Homo sapiens) (UniProt P49761).
Assay [17] concerns the target Serine/threonine-protein kinase 38 (Homo sapiens) (UniProt Q15208).
For assay [18], the target named is Mitogen-activated protein kinase 6 (Homo sapiens) (UniProt Q16659).
Assay [19] concerns the target Serine/threonine-protein kinase PAK 6 (Homo sapiens) (UniProt Q9NQU5).
Assay [20] has as its target Serine/threonine-protein kinase pim-2 (Homo sapiens, UniProt Q9P1W9).
The target of assay [21] is cAMP-dependent protein kinase catalytic subunit alpha (Homo sapiens) (UniProt P17612).

Chain of STE20-like serine/threonine-protein kinase (Homo sapiens) (Q9H2G2 whole entry, looked up): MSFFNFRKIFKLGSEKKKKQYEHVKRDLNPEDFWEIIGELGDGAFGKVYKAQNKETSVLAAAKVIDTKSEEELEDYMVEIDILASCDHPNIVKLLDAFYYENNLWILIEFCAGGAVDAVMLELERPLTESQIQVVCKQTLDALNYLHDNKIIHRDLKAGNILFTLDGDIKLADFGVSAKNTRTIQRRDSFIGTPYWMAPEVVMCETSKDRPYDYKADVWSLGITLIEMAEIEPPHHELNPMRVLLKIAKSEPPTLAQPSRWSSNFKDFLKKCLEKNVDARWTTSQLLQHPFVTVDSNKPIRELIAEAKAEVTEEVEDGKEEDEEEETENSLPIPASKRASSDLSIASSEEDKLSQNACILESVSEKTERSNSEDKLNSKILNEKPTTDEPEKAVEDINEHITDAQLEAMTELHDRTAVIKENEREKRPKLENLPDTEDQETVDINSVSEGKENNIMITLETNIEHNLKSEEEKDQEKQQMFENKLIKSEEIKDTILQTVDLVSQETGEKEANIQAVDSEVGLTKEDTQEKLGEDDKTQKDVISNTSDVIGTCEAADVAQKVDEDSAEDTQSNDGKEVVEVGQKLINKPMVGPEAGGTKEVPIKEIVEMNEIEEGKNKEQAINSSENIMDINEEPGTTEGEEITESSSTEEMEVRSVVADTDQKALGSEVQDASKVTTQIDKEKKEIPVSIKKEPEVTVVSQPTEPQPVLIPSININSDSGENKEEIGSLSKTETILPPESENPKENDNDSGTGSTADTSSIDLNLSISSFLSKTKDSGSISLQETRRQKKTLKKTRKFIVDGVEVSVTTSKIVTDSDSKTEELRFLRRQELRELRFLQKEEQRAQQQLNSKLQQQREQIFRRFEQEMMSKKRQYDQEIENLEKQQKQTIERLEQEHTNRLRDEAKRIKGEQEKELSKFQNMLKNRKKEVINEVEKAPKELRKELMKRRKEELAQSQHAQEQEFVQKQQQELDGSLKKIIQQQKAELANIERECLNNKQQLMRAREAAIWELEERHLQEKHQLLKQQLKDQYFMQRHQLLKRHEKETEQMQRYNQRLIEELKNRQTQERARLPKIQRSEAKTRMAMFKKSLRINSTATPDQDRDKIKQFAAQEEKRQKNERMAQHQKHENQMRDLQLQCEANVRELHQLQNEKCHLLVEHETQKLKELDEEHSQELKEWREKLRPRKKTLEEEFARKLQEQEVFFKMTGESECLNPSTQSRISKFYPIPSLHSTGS
Chain of Dual specificity protein kinase CLK3 (Homo sapiens) (P49761 whole entry, looked up): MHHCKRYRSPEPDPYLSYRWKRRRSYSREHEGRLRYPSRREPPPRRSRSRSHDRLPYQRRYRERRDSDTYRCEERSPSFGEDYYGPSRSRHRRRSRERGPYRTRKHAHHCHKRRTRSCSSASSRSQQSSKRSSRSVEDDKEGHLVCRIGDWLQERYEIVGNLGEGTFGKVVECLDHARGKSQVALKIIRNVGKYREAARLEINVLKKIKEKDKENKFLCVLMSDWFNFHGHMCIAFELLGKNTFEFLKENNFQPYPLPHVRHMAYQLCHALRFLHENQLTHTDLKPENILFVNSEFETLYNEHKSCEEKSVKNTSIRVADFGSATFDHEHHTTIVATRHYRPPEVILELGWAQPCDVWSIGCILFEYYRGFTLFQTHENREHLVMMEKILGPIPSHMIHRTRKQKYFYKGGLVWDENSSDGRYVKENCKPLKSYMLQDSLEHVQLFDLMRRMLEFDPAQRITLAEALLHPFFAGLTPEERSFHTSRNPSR
Chain of Serine/threonine-protein kinase VRK2 (Homo sapiens) (Q86Y07 whole entry): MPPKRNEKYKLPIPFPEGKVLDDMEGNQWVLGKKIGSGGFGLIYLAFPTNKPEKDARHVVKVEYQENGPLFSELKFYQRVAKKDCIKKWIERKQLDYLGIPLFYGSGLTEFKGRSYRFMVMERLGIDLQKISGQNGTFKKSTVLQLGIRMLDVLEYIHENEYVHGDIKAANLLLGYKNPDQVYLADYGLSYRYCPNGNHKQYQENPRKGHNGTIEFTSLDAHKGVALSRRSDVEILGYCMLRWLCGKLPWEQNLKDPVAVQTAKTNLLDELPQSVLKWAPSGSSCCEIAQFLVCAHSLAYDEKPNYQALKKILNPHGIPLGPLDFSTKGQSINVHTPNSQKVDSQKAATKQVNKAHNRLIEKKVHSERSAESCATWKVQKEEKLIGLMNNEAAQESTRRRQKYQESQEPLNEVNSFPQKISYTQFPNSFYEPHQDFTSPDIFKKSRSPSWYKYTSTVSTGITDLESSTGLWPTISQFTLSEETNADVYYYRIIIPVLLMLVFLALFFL
Chain of Serine/threonine-protein kinase PAK 6 (Homo sapiens) (Q9NQU5 whole entry, looked up): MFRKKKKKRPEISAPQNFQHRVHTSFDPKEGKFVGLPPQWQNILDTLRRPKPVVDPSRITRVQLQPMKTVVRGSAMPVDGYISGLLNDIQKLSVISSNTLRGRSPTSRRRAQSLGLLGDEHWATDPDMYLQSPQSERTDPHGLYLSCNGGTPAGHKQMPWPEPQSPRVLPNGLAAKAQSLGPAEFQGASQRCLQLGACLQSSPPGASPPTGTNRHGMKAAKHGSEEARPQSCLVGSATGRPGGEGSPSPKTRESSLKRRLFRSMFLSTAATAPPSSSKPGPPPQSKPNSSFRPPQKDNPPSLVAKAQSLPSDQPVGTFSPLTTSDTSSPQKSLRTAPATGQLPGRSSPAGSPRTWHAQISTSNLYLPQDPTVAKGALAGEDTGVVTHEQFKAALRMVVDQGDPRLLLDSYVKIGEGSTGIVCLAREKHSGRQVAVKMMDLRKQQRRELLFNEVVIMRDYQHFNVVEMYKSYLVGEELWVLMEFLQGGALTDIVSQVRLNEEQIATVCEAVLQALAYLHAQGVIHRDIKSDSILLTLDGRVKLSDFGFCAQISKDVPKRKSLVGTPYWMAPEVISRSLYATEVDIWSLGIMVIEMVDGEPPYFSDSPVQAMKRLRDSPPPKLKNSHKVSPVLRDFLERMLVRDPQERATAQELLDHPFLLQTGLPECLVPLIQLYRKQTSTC
Chain of Serine/threonine-protein kinase pim-2 (Q9P1W9 whole entry, looked up): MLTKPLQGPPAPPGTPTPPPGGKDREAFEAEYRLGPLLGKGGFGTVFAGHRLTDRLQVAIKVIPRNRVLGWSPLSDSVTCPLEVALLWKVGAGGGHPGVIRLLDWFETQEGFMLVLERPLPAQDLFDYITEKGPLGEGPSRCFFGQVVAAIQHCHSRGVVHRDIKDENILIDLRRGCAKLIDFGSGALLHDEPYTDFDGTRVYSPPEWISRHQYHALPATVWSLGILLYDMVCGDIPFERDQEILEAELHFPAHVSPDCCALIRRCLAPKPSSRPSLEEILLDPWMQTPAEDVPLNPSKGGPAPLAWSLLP

As to `O=C1C=C2C(=Nc3c2c2c(c4c3=NC3=C4CCC=C3)C=NC=2)CC1`, the ΔTm amounted to 0.8 °C in [1]; 6.4 °C in assay [2]; 3.7 °C in assay [3]; 1.7 °C in assay [4]; 4.7 °C in assay [5]; 1.2 °C in assay [6]. The ΔTm stood at 6.6 °C in assay [7]; 6.9 °C in assay [8]; 0.9 °C in assay [9]; 3.8 °C in assay [10]; 11.9 °C in [11]; 0.6 °C in assay [12]. The ΔTm in assay [13] turned out to be 7.5 °C; in [14], 0.8 °C; in [15], 2.4 °C; in [16], 2.3 °C; in assay [17], 3.6 °C; in [18], 1.4 °C. Moreover, the results for the ΔTm in assay [19], in [20] and in [21] were 3.1 °C, 5.2 °C and 2.1 °C, respectively.
`Oc1ccc(-c2nc(-c3ccc(F)cc3)c(-c3ccncc3)[nH]2)cc1`: the shift in melting temperature (ΔTm) was -0.4 °C in assay [1]; 4.4 °C in [2]; 0.4 °C in assay [3]; 1.3 °C in [4]; 0.7 °C in assay [5]; 10.9 °C in assay [6]. Further, the ΔTm in assay [7] is -0.2 °C; in assay [8] it was 4.4 °C; in assay [9], 1 °C; in assay [10], 0.9 °C; in assay [11] it was 0.1 °C; in assay [12], 0.4 °C. Moreover, the ΔTm in assay [13] is -1.4 °C; in [14], 0.2 °C; in assay [15], 0.6 °C; in assay [16], -0.1 °C; in assay [17], 0.7 °C; in assay [18], 0.2 °C. Besides, the ΔTm was -0.2 °C in assay [19], 0.8 °C in assay [20] and 2.6 °C in assay [21].
For the molecule `O=C1Nc2ccc(I)cc2/C1=C\c1cc(Br)c(O)c(Br)c1`, the ΔTm in assay [1] is -0.4 °C; in assay [2] it was 2.2 °C; in assay [3], -0.8 °C; in assay [4], 6 °C; in assay [5], 1.7 °C; in [6], -0.2 °C. The ΔTm in [7] was -2.8 °C; in [8], 4.5 °C; in assay [9] it was 0.2 °C; in assay [10], 2.6 °C; in [11], 0.5 °C; in assay [12] it was 0.5 °C. In addition, the ΔTm in [13] is 2.5 °C; in assay [14] it was 0.2 °C; in [15] it was -0.3 °C; in assay [16] it was 0.5 °C; in assay [17], 0.5 °C; in [18], 0.4 °C. The thermal shift (ΔTm) is -0.3 °C in [19], 6.8 °C in assay [20] and 1 °C in assay [21].
For `O=c1c(-c2ccc(F)cc2)c(-c2ccncc2)[nH]n1-c1ccc(Cl)cc1`, the ΔTm stood at 0.3 °C in assay [1]; 2.4 °C in assay [2]; 0.5 °C in assay [3]; 0.5 °C in assay [4]; 0.7 °C in assay [5]; 7.1 °C in [6]. In addition, the ΔTm worked out at 0.4 °C in assay [7]; 0.3 °C in assay [8]; 0.5 °C in [9]; 0.6 °C in assay [10]; 0.3 °C in assay [11]; 1.2 °C in [12]. The ΔTm in [13] was -0.1 °C; in [14], 0.4 °C; in assay [15] it was 0 °C; in [16] it was 0.3 °C; in assay [17], 0.5 °C; in [18] it was 0.7 °C. The results for the ΔTm in assay [19], in assay [20] and in [21] were -0.4 °C, 0.2 °C and 1.5 °C, respectively.
